One data set deals with P-glycoprotein (Homo sapiens, UniProt P08183). Put plainly: Rhodamine 123 transport assay across HCT-8 cell monolayers. To be noted: for inhibition at 10 μM: human, HCT-8 cell monolayers in Transwell dishes, probe Rhodamine 123 (15 μM).
Data set [1] concerns MDR1-expressing NIH 3T3 cells. Put plainly: Cytotoxicity (MTT) assay: modulation of drug cytotoxicity in multidrug resistant cells. To be noted: compound 5 μM; 50 nM doxorubicin; 72 hours; MTT.
Setting [2] is: compound 10 μM, Rh123 15 μM, HCT-8 cells.
[3] abbreviates: % Inhibition of R123 Transport, compound 10 μM, Rh123 15 μM, HCT-8 cells.

Sequence of P-glycoprotein (P08183 whole entry): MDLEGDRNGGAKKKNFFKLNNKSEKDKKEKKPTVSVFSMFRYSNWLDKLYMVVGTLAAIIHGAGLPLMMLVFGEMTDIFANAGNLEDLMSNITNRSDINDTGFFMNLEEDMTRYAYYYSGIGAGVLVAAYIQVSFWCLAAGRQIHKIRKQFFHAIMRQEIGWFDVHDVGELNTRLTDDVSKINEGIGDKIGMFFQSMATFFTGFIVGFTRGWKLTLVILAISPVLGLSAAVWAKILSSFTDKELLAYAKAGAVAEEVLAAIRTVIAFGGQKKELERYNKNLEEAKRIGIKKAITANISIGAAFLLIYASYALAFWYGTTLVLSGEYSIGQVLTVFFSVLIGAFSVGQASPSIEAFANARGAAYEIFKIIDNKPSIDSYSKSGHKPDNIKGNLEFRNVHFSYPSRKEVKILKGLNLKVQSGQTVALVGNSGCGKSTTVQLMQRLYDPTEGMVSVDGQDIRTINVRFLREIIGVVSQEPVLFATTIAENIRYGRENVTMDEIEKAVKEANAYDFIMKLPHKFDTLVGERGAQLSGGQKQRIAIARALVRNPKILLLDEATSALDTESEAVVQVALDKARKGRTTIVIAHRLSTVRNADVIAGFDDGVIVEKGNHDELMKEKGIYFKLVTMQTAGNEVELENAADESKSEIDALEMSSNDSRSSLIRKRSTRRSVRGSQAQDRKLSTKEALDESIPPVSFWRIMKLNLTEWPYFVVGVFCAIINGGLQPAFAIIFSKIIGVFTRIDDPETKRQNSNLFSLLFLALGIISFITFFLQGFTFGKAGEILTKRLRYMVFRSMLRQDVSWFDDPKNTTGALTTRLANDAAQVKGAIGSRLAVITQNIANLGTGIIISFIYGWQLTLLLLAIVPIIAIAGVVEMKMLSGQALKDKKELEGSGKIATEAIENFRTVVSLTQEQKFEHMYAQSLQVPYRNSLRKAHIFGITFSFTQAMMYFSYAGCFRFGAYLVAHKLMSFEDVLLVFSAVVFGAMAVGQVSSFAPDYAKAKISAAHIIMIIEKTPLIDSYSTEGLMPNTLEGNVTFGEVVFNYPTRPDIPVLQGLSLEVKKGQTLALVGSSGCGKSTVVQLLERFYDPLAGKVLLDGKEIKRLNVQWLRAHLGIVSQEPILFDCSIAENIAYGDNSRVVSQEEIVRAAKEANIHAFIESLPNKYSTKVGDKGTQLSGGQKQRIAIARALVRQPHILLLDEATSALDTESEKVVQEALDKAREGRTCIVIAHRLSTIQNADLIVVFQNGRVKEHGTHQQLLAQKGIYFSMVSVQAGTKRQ
Procedure for P-glycoprotein: The human ileocecal adenocarcinoma cell line HCT-8 was grown in RPMI-1640 medium supplemented with 10% horse serum, 1 mM sodium pyruvate and 0.01 mg/ml gentamicin. All cells were maintained in a humidified atmosphere with 5% CO2 at 37° C.
Rhodamine 123 transport was examined as previously described (Hunter J. et al., Simmons, Br. J. Cancer, 64: 437444 (1991); Kim A. E. et al., J. Pharm. Exp. Ther., 286: 1439-1445 (1998)) using HCT-8 cells. Particularly, cells were grown in 6 well Corning Transwell dishes until a tight monolayer was formed. Rh123 was added at a final concentration of 15 μM to the basal or apical compartments and 200 μl samples were taken at the indicated times from the opposite chamber. Fluorescence of Rh123 in the media samples was measured using a fluorescence plate reader with an excitation wavelength of 485 nm and an emission wavelength of 530 nm.

In turn, `COCC1C(CCN2CCC(Cc3ccccc3)CC2)c2cc(OC)c(OC)cc2C1c1ccc(OC)c(OC)c1` (stereo not shown) showed an inhibition at 10 μM against P-glycoprotein of 88.9%. The “Modulation of Drug Resistance (percentage increase in doxorubicin cytotoxicity in the presence of the compounds versus in their absence)” value in data set [1] is given as 73.65%.

As to “2-{3-(3,4-dimethoxyphenyl)-5,6-dimethoxy-2-[4-(4-nitrophenyl)-piperazin-1-carbonyl]-indan-1-yl}-1-[4-(4-nitrophenyl)-1-yl]-ethanone [AV-196]”, at P-glycoprotein (setting [2]), the “% Inhibition of R123 Transport” value came to 64.4%. Besides, in data set [1], the “Modulation of Drug Resistance (percentage increase in doxorubicin cytotoxicity in the presence of the compounds versus in their absence)” value was determined as 41.47%.

On to `CCCOc1ccc(C2c3cc(OCCC)c(OC)cc3C(CC(=O)N3CCN(c4ccccc4OCC)CC3)C2C(=O)N2CCN(c3ccccc3OCC)CC2)cc1OC` (single isomer, unassigned) [AV-239-1], for which, at P-glycoprotein (setting [2]), the “% Inhibition of R123 Transport” value is listed as 90.10%. Besides, in data set [1], the “Modulation of Drug Resistance (percentage increase in doxorubicin cytotoxicity in the presence of the compounds versus in their absence)” value is 55.3%. For the compound `CCCOc1ccc(C2c3cc(OCCC)c(OC)cc3C(CC(=O)N3CCN(c4ccccc4OCC)CC3)C2C(=O)N2CCN(c3ccccc3OCC)CC2)cc1OC` (single isomer, unassigned) [AV-239-2], the “% Inhibition of R123 Transport” value on P-glycoprotein (setting [2]) is given as 91.38%. Besides, the “Modulation of Drug Resistance (percentage increase in doxorubicin cytotoxicity in the presence of the compounds versus in their absence)” value in data set [1] was 60%. The matching figures for `COc1cc(C2c3cc(O)c(OC)cc3C(CC(=O)N3CCC(Cc4ccccc4)CC3)C2C(=O)N2CCC(Cc3ccccc3)CC2)ccc1O` (single isomer, unassigned) [AV-251-1]: 79.26% and −6.9%. For `COc1cc(C2c3cc(O)c(OC)cc3C(CC(=O)N3CCC(Cc4ccccc4)CC3)C2C(=O)N2CCC(Cc3ccccc3)CC2)ccc1O` (single isomer, unassigned) [AV-251-2], at P-glycoprotein (setting [2]), the “% Inhibition of R123 Transport” value was 75.44%. The “Modulation of Drug Resistance (percentage increase in doxorubicin cytotoxicity in the presence of the compounds versus in their absence)” value in data set [1] turned out to be 2.4%. For the compound `CCOc1ccccc1N1CCN(C(=O)CC2c3cc4c(cc3C(c3ccc5c(c3)OCO5)C2C(=O)N2CCN(c3ccccc3OCC)CC2)OCO4)CC1` (single isomer, unassigned) [AV-258-1, 2-{7-benzo[1,3]dioxol-5-yl-6-[4-(2-ethoxy-phenyl)-piperazin-1-carbonyl]-6,7-dihydro-5H-indeno[5,6-d][1,3]dioxol-5-yl}-1-[4-(2-ethoxy-phenyl)-piperazin-1-yl]-ethanone], at P-glycoprotein (setting [3]), the inhibition at 10 μM worked out at 69.9%. Also, the “Modulation of Drug Resistance (percentage increase in doxorubicin cytotoxicity in the presence of the compounds versus in their absence)” value in data set [1] is 7.9%. Turning to `CCOc1ccccc1N1CCN(C(=O)CC2c3cc4c(cc3C(c3ccc5c(c3)OCO5)C2C(=O)N2CCN(c3ccccc3OCC)CC2)OCO4)CC1` (single isomer, unassigned) [AV-258-2, 2-{7-benzo[1,3]dioxol-5-yl-6-[4-(2-ethoxy-phenyl)-piperazin-1-carbonyl]-6,7-dihydro-5H-indeno[5,6-d][1,3]dioxol-5-yl}-1-[4-(2-ethoxy-phenyl)-piperazin-1-yl]-ethanone], the “% Inhibition of R123 Transport” value at P-glycoprotein (setting [2]) is reported as 67.09%. Also, the “Modulation of Drug Resistance (percentage increase in doxorubicin cytotoxicity in the presence of the compounds versus in their absence)” value in data set [1] was 19.2%. In the case of `COc1ccc(C2c3cc(OC)c(OC)cc3C(CC(=O)N3CCC(Cc4ccccc4)CC3)C2C(=O)N2CCC(Cc3ccccc3)CC2)cc1OC` (stereo not shown) [AV-159, 2-[2-(4-benzylpiperidine-1-carbonyl)-3-(3,4-dimethoxyphenyl)-5,6-dimethoxy-indan-1-yl]-1-(4-benzylpiperidin-1-yl)-ethanone], the inhibition at 10 μM against P-glycoprotein (setting [3]) worked out at 81.4%. The “Modulation of Drug Resistance (percentage increase in doxorubicin cytotoxicity in the presence of the compounds versus in their absence)” value in data set [1] is recorded as 56.06%. Compound `COc1ccc(C2c3cc(OC)c(OC)cc3C(CC(=O)N3CCN(c4ccccc4)CC3)C2C(=O)N2CCN(c3ccccc3)CC2)cc1OC` (stereo not shown) [AV-161, 2-[3-(3,4-dimethoxyphenyl)-5,6-dimethoxy-2-(4-phenylpiperazin-1-carbonyl)-indan-1-yl]-1-(4-phenylpiperazin-1-yl)-ethanone] registered an inhibition at 10 μM on P-glycoprotein (setting [3]) of 64.1%. In data set [1], the “Modulation of Drug Resistance (percentage increase in doxorubicin cytotoxicity in the presence of the compounds versus in their absence)” value is listed as 75.91%. The matching figures for `COc1ccc(C2c3cc(OC)c(OC)cc3C(CCN3CCN(c4ccccc4)CC3)C2CN2CCN(c3ccccc3)CC2)cc1OC` (stereo not shown) [AV-162, 2-[3-(3,4-dimethoxyphenyl)-5,6-dimethoxy-2-(4-phenylpiperazin-1-yl)methyl-indan-1-yl]-1-(4-phenylpiperazin-1-yl)-ethane]: 83.1% and 65.83%. `COc1ccc(C2c3cc(OC)c(OC)cc3C(CC(=O)N3CCN(c4ccc(C(C)=O)cc4)CC3)C2C(=O)N2CCN(c3ccc(C(C)=O)cc3)CC2)cc1OC` (stereo not shown) [AV-163, 2-[2-[4-(4-acetylphenyl)-piperazin-1-carbonyl]-3-(3,4-dimethoxyphenyl)-5,6-dimethoxy-indan-1-yl]-1[4-(4-acetylphenyl)piperazine-1-yl]-ethanone] had an inhibition at 10 μM on P-glycoprotein (setting [3]) of 89.7%. Further, the “Modulation of Drug Resistance (percentage increase in doxorubicin cytotoxicity in the presence of the compounds versus in their absence)” value in data set [1] came out at 72.55%. On the same counts, the results for `COc1ccc(C2c3cc(OC)c(OC)cc3C(CC(=O)N3CCN(Cc4ccccc4)CC3)C2C(=O)N2CCN(Cc3ccccc3)CC2)cc1OC` (stereo not shown) [AV-164, 2-[2-(4-benzylpiperazine-1-carbonyl)-3-(3,4-dimethoxyphenyl)-5,6-dimethoxy-indan-1-yl]-1-(4-benzylpiperazine-1-yl)-ethanone] are 85.1% and 70.03%. The matching figures for `COc1ccc(C2c3cc(OC)c(OC)cc3C(CC(=O)N3CCN(c4ccc(Cl)cc4)CC3)C2C(=O)N2CCN(c3ccc(Cl)cc3)CC2)cc1OC` (stereo not shown) [AV-167, 2-[2-[4-(4-chlorophenyl)-piperazin-1 carbonyl]-3-(3,4-dimethoxyphenyl)-5,6-dimethoxy-indan-1-yl]-1-[4-(4-chlorophenyl)piperazine-1-yl]-ethanone]: 66.3% and 68.21%. Regarding `COc1ccc(N2CCN(C(=O)CC3c4cc(OC)c(OC)cc4C(c4ccc(OC)c(OC)c4)C3C(=O)N3CCN(c4ccc(OC)cc4)CC3)CC2)cc1` (stereo not shown) [AV-168, 2-{3-(3,4-dimethoxyphenyl)-5,6-dimethoxy-2-[4-(4-methoxyphenyl)-piperazin-1-carbonyl]-indan-1-yl}-1-[4-(4-methoxyphenyl)-1-yl]-ethanone], at P-glycoprotein (setting [2]), the “% Inhibition of R123 Transport” value is 81.5%. In addition, the “Modulation of Drug Resistance (percentage increase in doxorubicin cytotoxicity in the presence of the compounds versus in their absence)” value in data set [1] came to 73.81%.

`COc1ccc(C2c3cc(OC)c(OC)cc3C(CC(=O)N3CCN(c4ccc(F)cc4)CC3)C2C(=O)N2CCN(c3ccc(F)cc3)CC2)cc1OC` (stereo not shown) [AV-169, 2-{2-[4-(4-fluorophenyl)-piperazin-1-carbonyl]-3-(3,4-dimethoxyphenyl)-5,6-dimethoxy-indan-1-yl}-1-[4-(4-fluorophenyl)piperazine-1-yl]-ethanone] registered an inhibition at 10 μM against P-glycoprotein (setting [3]) of 77.1%. Moreover, in data set [1], the “Modulation of Drug Resistance (percentage increase in doxorubicin cytotoxicity in the presence of the compounds versus in their absence)” value is given as 71.29%.

`CCOc1ccccc1N1CCN(C(=O)CC2c3cc(OC)c(OC)cc3C(c3ccc(OC)c(OC)c3)C2C(=O)N2CCN(c3ccccc3OCC)CC2)CC1` (stereo not shown) [AV-171, 2-{3-(3,4-dimethoxyphenyl)-5,6-dimethoxy-2-[4-(2-ethoxyphenyl)-piperazin-1-carbonyl]-indan-1-yl}-1-[4-(2-ethoxyphenyl)-1-yl]-ethanone]: at P-glycoprotein (setting [2]), the “% Inhibition of R123 Transport” value was found to be 92.9%. In data set [1], the “Modulation of Drug Resistance (percentage increase in doxorubicin cytotoxicity in the presence of the compounds versus in their absence)” value worked out at 66.11%. On to `COc1ccc(C2c3cc(OC)c(OC)cc3C(CC(=O)N3CCN(CC=Cc4ccccc4)CC3)C2C(=O)N2CCN(CC=Cc3ccccc3)CC2)cc1OC` (stereo not shown) [AV-172, 2-{3-(3,4-dimethoxyphenyl)-5,6-dimethoxy-2-[4-(3-phenylallyl)-piperazine-1-carbonyl]-indan-1-yl}-1-[4-(3-phenylallyl)piperazine-1-yl]-ethanone], for which the inhibition at 10 μM against P-glycoprotein (setting [3]) worked out at 86.7%. Also, the “Modulation of Drug Resistance (percentage increase in doxorubicin cytotoxicity in the presence of the compounds versus in their absence)” value in data set [1] is 68.57%. Take `CCOC(=O)N1CCN(C(=O)CC2c3cc(OC)c(OC)cc3C(c3ccc(OC)c(OC)c3)C2C(=O)N2CCN(C(=O)OCC)CC2)CC1` (stereo not shown) [AV-174, 4-{2-[3-(3,4-dimethoxyphenyl)-5,6-dimethoxy-2-(piperazine-1-carboxylic acid ethyl ester)-indan-1-yl]-acetyl}-piperazine-1-carboxylic acid ethyl ester]: at P-glycoprotein (setting [2]), the “% Inhibition of R123 Transport” value stood at 23.1%. In addition, in data set [1], the “Modulation of Drug Resistance (percentage increase in doxorubicin cytotoxicity in the presence of the compounds versus in their absence)” value is reported as 18.50%. On the same counts, the results for `COc1ccc(C2c3cc(OC)c(OC)cc3C(CCO[Si](c3ccccc3)(c3ccccc3)C(C)(C)C)C2CO)cc1OC` (stereo not shown) [AV-175, [1-[2-t-butyldiphenyl-silanoxy)-ethyl-3-(3,4-dimethoxyphenyl)-5,6-dimethoxy-indan-2-yl]-methanol] are 71.3% and 52.50%. Regarding `COCC1C(CCO)c2cc(OC)c(OC)cc2C1c1ccc(OC)c(OC)c1` (stereo not shown) [AV-176, 2-[3-[3,4-dimethoxyphenyl)-5,6-dimethoxy-2-methoxymethyl-indan-1-yl]-ethanol], the inhibition at 10 μM against P-glycoprotein (setting [3]) worked out at 11.5%. Also, the “Modulation of Drug Resistance (percentage increase in doxorubicin cytotoxicity in the presence of the compounds versus in their absence)” value in data set [1] worked out at 8.65%. For the compound `COCC1C(CCN2CCN(CC=Cc3ccccc3)CC2)c2cc(OC)c(OC)cc2C1c1ccc(OC)c(OC)c1` (stereo not shown) [AV-204, 1-{2-[3-(3,4-dimethoxyphenyl)-5,6-dimethoxy-2-methoxymethyl-indan-1-yl]-ethyl}-4-(3-phenylallyl)-piperazine], in data set [1], the “Modulation of Drug Resistance (percentage increase in doxorubicin cytotoxicity in the presence of the compounds versus in their absence)” value is recorded as 64.60%.

These data come from US20020128231A1 (priority 2000, published 2002).
